The assay has as its system BDF1 mice, B16 melanoma ip, median survival T/C. Briefly: NCI In Vivo Anticancer Drug Screen. Data for tumor model B16 Melanoma (intraperitoneal) in B6D2F1 (BDF1) mice. The settings on record: endpoint: median survival time, higher = longer survival. The procedure, abridged: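 Transplantable tumor model; survival or tumor size measured; reported as T/C, treated over vehicle control.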

[1] abbreviates: dose: 6.25 mg/kg/injection, schedule: Q01DX009 (ip), vehicle: saline with Tween-80.
The mark [2] stands for this setting: dose: 12.5 mg/kg/injection, schedule: Q01DX009 (ip), vehicle: saline with Tween-80.
Where [3] appears, read: dose: 25.0 mg/kg/injection, schedule: Q01DX009 (ip), vehicle: saline with Tween-80.
[4] abbreviates: dose: 50.0 mg/kg/injection, schedule: Q01DX009 (ip), vehicle: saline with Tween-80.
[5] abbreviates: dose: 100.0 mg/kg/injection, schedule: Q01DX009 (ip), vehicle: saline with Tween-80.
Setting [6] is: dose: 200.0 mg/kg/injection, schedule: Q01DX009 (ip), vehicle: saline with Tween-80.
Where [7] appears, read: dose: 25.0 mg/kg/injection, schedule: Q01DX009 (ip), vehicle: Klucel (hydroxypropylcellulose) (HPC).
[8] abbreviates: dose: 50.0 mg/kg/injection, schedule: Q01DX009 (ip), vehicle: Klucel (hydroxypropylcellulose) (HPC).
The mark [9] stands for this setting: dose: 100.0 mg/kg/injection, schedule: Q01DX009 (ip), vehicle: Klucel (hydroxypropylcellulose) (HPC).
Setting [10] is: dose: 200.0 mg/kg/injection, schedule: Q01DX009 (ip), vehicle: Klucel (hydroxypropylcellulose) (HPC).
[11] abbreviates: dose: 400.0 mg/kg/injection, schedule: Q01DX009 (ip), vehicle: Klucel (hydroxypropylcellulose) (HPC).
Setting [12] is: dose: 200.0 mg/kg/injection, schedule: Q04DX003 (ip), vehicle: Klucel (hydroxypropylcellulose) (HPC).

Several values for one entry are separate records, joined by “and”; a condition that tells them apart may be missing. Equal values may be shown once. Inconclusive results and toxic doses are left out.

Regarding `CN=C(N)NC`, the T/C is, setting by setting: (dose: 50.0 mg/kg/injection, schedule: Q01DX009 (ip), vehicle: saline) 95 % of control; (dose: 100.0 mg/kg/injection, schedule: Q01DX009 (ip), vehicle: saline) 98 % of control; (dose: 200.0 mg/kg/injection, schedule: Q01DX009 (ip), vehicle: saline) 104 % of control.
For the compound `CC(=O)OC1COC(NC(=O)N(CCCl)N=O)C(OC(C)=O)C1OC(C)=O` (stereo not drawn), the T/C runs as follows: (dose: 0.18 mg/kg/injection, schedule: Q01DX009 (ip), vehicle: saline with Tween-80) 106 % of control; (dose: 0.2 mg/kg/injection, schedule: Q01DX009 (ip), vehicle: saline with Tween-80) 155 % of control; (dose: 0.37 mg/kg/injection, schedule: Q01DX009 (ip), vehicle: saline with Tween-80) 118 % of control; (dose: 0.39 mg/kg/injection, schedule: Q01DX009 (ip), vehicle: saline with Tween-80) 114 % of control; (dose: 1.5 mg/kg/injection, schedule: Q01DX009 (ip), vehicle: saline with Tween-80) 168 % of control; (dose: 1.56 mg/kg/injection, schedule: Q01DX009 (ip), vehicle: saline with Tween-80) 170 % of control. Moreover, the T/C (dose: 3.0 mg/kg/injection, schedule: Q01DX009 (ip), vehicle: saline with Tween-80) was 173 % of control; the T/C (dose: 3.12 mg/kg/injection, schedule: Q01DX009 (ip), vehicle: saline with Tween-80) was 209 % of control; the T/C (dose: 6.0 mg/kg/injection, schedule: Q01DX009 (ip), vehicle: saline with Tween-80) was 162 % of control; the T/C under setting [1] is 190 % of control.
Regarding `CC12C=CC(=O)C=C1CCC1C2C(O)CC2(C)C1CCC2(O)C(=O)COC(=O)CCCc1ccc(N(CCCl)CCCl)cc1` (stereo not drawn), the T/C (dose: 15.0 mg/kg/injection, schedule: Q01DX011 (ip), vehicle: saline) was 119 % of control.
On to `C=CCNc1nc2c(s1)CCc1cc(OC)c(OC)cc1-2`, for which the T/C is 104 % of control under setting [2]; 106 % of control under setting [3]; 115 % of control under setting [4]; 104 % of control under setting [5]; 104 % of control under setting [6].
Turning to `CCN(CC)CCSC(CO)c1ccccc1` (stereo not drawn), the T/C is, setting by setting: under setting [7], 103 % of control; under setting [8], 96 % of control; under setting [9], 93 % of control.
`O=C(Nc1ccc2c(c1)OCO2)O/N=C1\C(=O)Nc2ccccc21`: the T/C (dose: 16.5 mg/kg/injection, schedule: Q04DX003 (ip), vehicle: saline with Tween-80) is 100 % of control; the T/C under setting [3] is 109 % of control; the T/C (dose: 25.0 mg/kg/injection, schedule: Q04DX003 (ip), vehicle: saline with Tween-80) was 100 % of control; the T/C (dose: 25.0 mg/kg/injection, schedule: Q04DX003 (ip), vehicle: saline) is 153 % of control; the T/C (dose: 37.5 mg/kg/injection, schedule: Q04DX003 (ip), vehicle: saline with Tween-80) was 95 % of control; the T/C under setting [4] was 104 % of control. Under setting [5], the T/C was 100 % of control.
Turning to `[Cl][Pt+2][Br].[NH-]CC[NH-]`, the T/C is, setting by setting: (dose: 0.47 mg/kg/injection, schedule: Q04DX003 (ip), vehicle: saline with Tween-80) 110 % of control; (dose: 0.5 mg/kg/injection, schedule: Q01DX009 (ip), vehicle: saline) 110 % of control; (dose: 0.95 mg/kg/injection, schedule: Q04DX003 (ip), vehicle: saline with Tween-80) 118 % of control; (dose: 1.0 mg/kg/injection, schedule: Q01DX009 (ip), vehicle: saline) 110 % of control; (dose: 1.9 mg/kg/injection, schedule: Q04DX003 (ip), vehicle: saline with Tween-80) 105 % of control; (dose: 2.0 mg/kg/injection, schedule: Q01DX009 (ip), vehicle: saline) 110 % of control.
Turning to `CCN(CC)CCSC(=O)C(O)(c1ccccc1)C1CCCC1` (stereo not drawn), the T/C (dose: 25.0 mg/kg/injection, schedule: Q01DX009 (ip), vehicle: saline) is 124 % of control.
With `O=C1c2ccccc2CC12OC2c1ccccc1` (stereo not drawn), the T/C runs as follows: under setting [8], 94 % of control; under setting [9], 90 % of control; under setting [10], 103 % of control; under setting [11], 96 % of control.
In the case of `CCOc1ccc(NC(=O)OCCN2CCN(CCc3ccccc3)C(C)C2)cc1` (stereo not drawn), the T/C is, setting by setting: under setting [3], 108 % of control; under setting [4], 113 % of control; under setting [5], 101 % of control.
As to `CCOC(=O)/C=C/C(=O)NCC(N)C(=O)O` (stereo not drawn), the T/C was 96 % of control (dose: 6.25 mg/kg/injection, schedule: Q01DX009 (ip), vehicle: distilled water + Tween-80); 88 % of control (dose: 12.5 mg/kg/injection, schedule: Q01DX009 (ip), vehicle: distilled water + Tween-80); 104 % of control (dose: 25.0 mg/kg/injection, schedule: Q01DX009 (ip), vehicle: distilled water + Tween-80); 88 % of control (dose: 50.0 mg/kg/injection, schedule: Q01DX009 (ip), vehicle: distilled water + Tween-80); 98 % of control (dose: 100.0 mg/kg/injection, schedule: Q01DX009 (ip), vehicle: distilled water + Tween-80).
With `CN(CCCN(C)CCC1CCCCC1)CCC1CCCCC1`, the T/C under setting [2] was 92 % of control and the T/C under setting [3] was 95 % of control.
On to `Brc1cnc(OCc2ccccc2)nc1OCc1ccccc1`, for which the T/C reads like this: under setting [9], 118 % of control; under setting [10], 110 % of control; under setting [11], 107 % of control.
For the compound `CC(CN(C)C)CN1c2ccccc2CCc2ccccc21` (stereo not drawn), the T/C reads like this: (dose: 2.18 mg/kg/injection, schedule: Q01DX009 (ip), vehicle: saline) 106 % of control; (dose: 4.37 mg/kg/injection, schedule: Q01DX009 (ip), vehicle: saline) 110 % of control; (dose: 8.75 mg/kg/injection, schedule: Q01DX009 (ip), vehicle: saline) 100 % of control; (dose: 17.5 mg/kg/injection, schedule: Q01DX009 (ip), vehicle: saline) 91 % of control.
`CCCCCNC(=O)Nc1cccc(Cl)c1C`: the T/C runs as follows: under setting [1], 91 % of control; under setting [2], 104 % of control; under setting [3], 100 % of control; under setting [4], 89 % of control and 103 % of control.
Consider `CN(Cc1ccccc1)/N=N/c1nc[nH]c1C(N)=O`, for which the T/C reads like this: under setting [3], 111 % of control; under setting [4], 111 % of control; under setting [5], 111 % of control; under setting [6], 110 % of control.
For `NN(CC1=COc2ccccc2O1)Cc1ccccc1`, the T/C is 94 % of control (dose: 12.5 mg/kg/injection, schedule: Q01DX009 (ip), vehicle: Klucel (hydroxypropylcellulose) (HPC)); 94 % of control under setting [7]; 91 % of control under setting [8]; 105 % of control under setting [9]; 91 % of control under setting [12].
In the case of `CCCCCCCCCC(=O)OC(C)C(=O)N(CCCC)CCCC` (stereo not drawn), the T/C runs as follows: under setting [3], 98 % of control; under setting [4], 97 % of control; under setting [5], 88 % of control.
For `Nc1ncnc2c1ncn2C1OC(CO)CC1O` (stereo not drawn), the T/C runs as follows: (dose: 18.75 mg/kg/injection, schedule: Q01DX009 (ip), vehicle: Klucel (hydroxypropylcellulose) (HPC)) 113 % of control; (dose: 37.5 mg/kg/injection, schedule: Q01DX009 (ip), vehicle: Klucel (hydroxypropylcellulose) (HPC)) 112 % of control and 119 % of control; (dose: 75.0 mg/kg/injection, schedule: Q01DX009 (ip), vehicle: Klucel (hydroxypropylcellulose) (HPC)) 104 % of control and 115 % of control.
`C=CCCOC(C)=O`: the T/C is 100 % of control under setting [8], 108 % of control under setting [9] and 108 % of control under setting [10].
In the case of `CC(=O)SCCCCl`, the T/C was 108 % of control under setting [4], 112 % of control under setting [5] and 97 % of control under setting [6].
Regarding `Cc1c(N)nc(C(CC(N)=O)NCC(N)C(N)=O)nc1C(=O)NC(C(=O)NC(C)C(O)C(C)C(=O)NC(C(=O)NCCc1nc(-c2nc(C(=O)NCCC[S+](C)C)cs2)cs1)C(C)O)C(OC1OC(CO)C(O)C(O)C1OC1OC(CO)C(O)C(OC(N)=O)C1O)c1cnc[nH]1` (stereo not drawn), the T/C (dose: 3.9 mg/kg/injection, schedule: Q01DX009 (ip), vehicle: saline) is 107 % of control; the T/C (dose: 7.8 mg/kg/injection, schedule: Q01DX009 (ip), vehicle: saline) was 105 % of control; the T/C (dose: 15.6 mg/kg/injection, schedule: Q01DX009 (ip), vehicle: saline) is 99 % of control.
With `BrC1(Br)CC1(c1ccccc1)c1ccccc1`, the T/C is 111 % of control (dose: 50.0 mg/kg/injection, schedule: Q04DX003 (ip), vehicle: Klucel (hydroxypropylcellulose) (HPC)); 105 % of control (dose: 100.0 mg/kg/injection, schedule: Q04DX003 (ip), vehicle: Klucel (hydroxypropylcellulose) (HPC)); 102 % of control under setting [12].
